Assay results as given in patent US20080299176A1, “DRUG DELIVERY DEVICE COMPRISING CROSSLINKED POLYURETHANE-SILOXANE-CONTAINING COPOLYMERS” (priority 2007, published 2008).

Experiment: Diffusion of FA through the copolymer membranes (Valia-Chien diffusion apparatus)
Format: physicochemical
Conditions: membrane of Example 5 composition, thickness 100 μm; PBS, 37° C.; FA 2 mg in donor cell; HPLC at 238 nm
Experimental: The diffusion was carried out using Valia-Chien diffusion apparatus. FA and membranes with a composition described in Example 5 were used. FA (2 mg) and PBS (3.2 mL) were added to each of the donor cells, and 3.2 mL PBS were added in each of the receptor cells. The cells were capped and the temperature was kept at 37° C. using a circulating water bath. At given time intervals, the diffusion media in the receptor cells were removed and replaced by fresh PBS. FA concentration in the release media was determined using a set of HP series 1100 HPLC instruments equipped with a degasser, a binary pump, an auto sampler and a DAD detector. The column used was an Altima C18 (5μ, 250 mm×4.6 mm). The mobile phase was 40% ACN in water and the flow rate was 1.0 mL/m in. The eluted FA was detected at 238 nm. The concentration of FA in the media was directly determined using HPLC. The diffusion rate of FA through the copolymer membranes with a thickness of 100 μm was estimated to be 1.4 μg/cm^2/hour.

For CC1(C)O[C@@H]2C[C@H]3[C@@H]4C[C@H](F)C5=CC(=O)C=C[C@]5(C)[C@@]4(F)[C@@H](O)C[C@]3(C)[C@]2(C(=O)CO)O1 [FA, fluocinolone acetonide], the “diffusion rate of FA through the copolymer membranes” value was 1.4 μg/cm^2/hour.
